This assay has as its target Cdk9/cyclinT1 (Homo sapiens, UniProt P50750). As to the kind of experiment: Cdk9/cyclinT1 kinase assay (IMAP or Alpha Screen protocol).

Sequence of Cdk9/cyclinT1 (P50750 whole entry): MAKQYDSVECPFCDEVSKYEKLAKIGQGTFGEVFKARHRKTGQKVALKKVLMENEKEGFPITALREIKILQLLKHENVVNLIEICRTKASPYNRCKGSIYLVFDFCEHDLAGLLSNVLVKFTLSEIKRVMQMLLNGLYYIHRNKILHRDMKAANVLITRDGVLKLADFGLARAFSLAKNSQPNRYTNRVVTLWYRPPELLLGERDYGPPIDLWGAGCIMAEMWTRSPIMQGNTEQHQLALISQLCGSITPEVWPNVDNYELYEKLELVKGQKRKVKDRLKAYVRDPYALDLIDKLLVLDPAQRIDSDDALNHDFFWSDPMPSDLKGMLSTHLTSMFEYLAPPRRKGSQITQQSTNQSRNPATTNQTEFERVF
Sequence of Cdk9/cyclinT1 (O60563 whole entry partner): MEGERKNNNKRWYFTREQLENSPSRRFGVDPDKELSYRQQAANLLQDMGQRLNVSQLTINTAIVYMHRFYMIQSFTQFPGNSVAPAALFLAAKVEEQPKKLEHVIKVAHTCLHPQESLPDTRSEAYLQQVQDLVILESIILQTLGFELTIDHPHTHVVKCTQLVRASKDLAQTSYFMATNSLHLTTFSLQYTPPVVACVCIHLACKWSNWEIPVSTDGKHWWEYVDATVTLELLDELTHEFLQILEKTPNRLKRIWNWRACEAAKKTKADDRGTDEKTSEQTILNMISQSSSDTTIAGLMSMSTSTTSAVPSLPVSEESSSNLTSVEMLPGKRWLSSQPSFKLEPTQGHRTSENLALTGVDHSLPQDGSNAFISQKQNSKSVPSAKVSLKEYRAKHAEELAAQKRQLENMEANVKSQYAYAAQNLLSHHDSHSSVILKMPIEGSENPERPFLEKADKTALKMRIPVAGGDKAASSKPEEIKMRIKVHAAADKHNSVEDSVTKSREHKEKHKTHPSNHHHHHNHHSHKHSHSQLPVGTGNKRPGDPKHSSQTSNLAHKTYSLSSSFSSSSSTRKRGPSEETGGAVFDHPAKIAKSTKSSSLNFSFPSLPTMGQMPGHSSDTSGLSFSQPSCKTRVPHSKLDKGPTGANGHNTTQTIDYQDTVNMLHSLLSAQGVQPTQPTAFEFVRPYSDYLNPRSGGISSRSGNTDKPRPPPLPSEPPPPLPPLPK
Description: Cdk9/cyclinT1 IMAP Protocol
Fluorescence polarization (FP) is used for detection.
Cdk9/cyclinT1 Alpha Screen Protocol

The term IC50 denotes the concentration needed to halve the response being measured. Low values mean inhibition by little substance, high ones a need for much substance. Consider `COC(=O)N[C@@H]1CC[C@H](C(=O)Nc2cc(-c3cncc(NCC4CCOCC4)n3)c(Cl)cn2)C1` [Example 53, [(1R,3S)-3-(5-Chloro-4-{6-[(tetrahydro-pyran-4-ylmethyl)-amino]-pyrazin-2-yl}-pyridin-2-ylcarbamoyl)-cyclopentyl]-carbamic acid methyl ester], for which the IC50 is less than 0.008 µM.

`CC(=O)N1CCC[C@H](C(=O)Nc2cc(-c3cncc(NCC4CCOCC4)n3)c(Cl)cn2)C1` [Example 48, (S)-1-Acetyl-piperidine-3-carboxylic acid (5-chloro-4-{6-[(tetrahydro-pyran-4-ylmethyl)-amino]-pyrazin-2-yl}-pyridin-2-yl)-amide] registered an IC50 of less than 0.008 µM. The result for `O=C(Nc1cc(-c2cncc(NCc3cccnc3)n2)c(Cl)cn1)[C@@H]1CCCNC1` [Example 25, (R)-Piperidine-3-carboxylic acid (5-chloro-4-{6-[(pyridin-3-ylmethyl)-amino]-pyrazin-2-yl}-pyridin-2-yl)-amide] reads 0.012 µM; that for `O=C(Nc1cc(-c2cncc(N[C@@H]3CC34CCOCC4)n2)c(Cl)cn1)[C@@H]1CCCNC1` [Example 63, (R)-Piperidine-3-carboxylic acid (5-chloro-4-{6-[(R)-(6-oxa-spiro[2.5]oct-1-yl)amino]-pyrazin-2-yl}-pyridin-2-yl)-amide], 0.047 µM; that for `CC(C)(C)OC(=O)N1CCC[C@@H](C(=O)Nc2cc(-c3cncc(NCC4CCOCC4)n3)c(Cl)cn2)C1` [Example 2, (R)-3-(5-Chloro-4-{6-[(tetrahydro-pyran-4-ylmethyl)-amino]-pyrazin-2-yl}-pyridin-2-ylcarbamoyl)-piperidine-1-carboxylic acid tert-butyl ester], 0.016 µM.

Compound `CC(=O)NCCNc1cncc(-c2cc(NC(=O)[C@@H]3CCCNC3)ncc2Cl)n1` [Example 19, (R)-Piperidine-3-carboxylic acid {4-[6-(2-acetylamino-ethylamino)-pyrazin-2-yl]-5-chloro-pyridin-2-yl}-amide] returned an IC50 of 0.153 µM. Compared with the last compound, the IC50 is about 9.6-fold higher. In turn, `COCC(=O)N1CCC[C@H](C(=O)Nc2cc(-c3cncc(NCC4CCOCC4)n3)c(Cl)cn2)C1` [Example 47, (S)-1-(2-Methoxy-acetyl)-piperidine-3-carboxylic acid (5-chloro-4-{6-[(tetrahydro-pyran-4-ylmethyl)-amino]-pyrazin-2-yl}-pyridin-2-yl)-amide] registered an IC50 of less than 0.008 µM. Consider `CS(=O)(=O)N1CCC[C@@H](C(=O)Nc2cc(-c3cncc(NCC4CCOCC4)n3)c(Cl)cn2)C1` [Example 4, (R)-1-Methanesulfonyl-piperidine-3-carboxylic acid (5-chloro-4-{6-[(tetrahydro-pyran-4-ylmethyl)-amino]-pyrazin-2-yl}-pyridin-2-yl)-amide], for which the IC50 turned out to be 0.179 µM. The result for `CCN1CCC[C@@H](C(=O)Nc2cc(-c3cncc(NCC4CCOCC4)n3)c(Cl)cn2)C1` [Example 7, (R)-1-Ethyl-piperidine-3-carboxylic acid (5-chloro-4-{6-[(tetrahydro-pyran-4-ylmethyl)-amino]-pyrazin-2-yl}-pyridin-2-yl)-amide] reads 0.229 µM.

`C[C@H](O)CNc1cncc(-c2cc(NC(=O)[C@@H]3CCCNC3)ncc2Cl)n1` [Example 29, (R)-Piperidine-3-carboxylic acid {5-chloro-4-[6-((S)-2-hydroxy-propylamino)-pyrazin-2-yl]-pyridin-2-yl}-amide] registered an IC50 of 0.037 µM. The result for `O=C(Nc1cc(-c2cncc(NCC3CC3)n2)c(Cl)cn1)[C@@H]1CCCNC1` [Example 39, (R)-Piperidine-3-carboxylic acid {5-chloro-4-[6-(cyclopropylmethyl-amino)-pyrazin-2-yl]-pyridin-2-yl}-amide] reads 0.017 µM. The result for `CC(=O)Nc1cc(-c2cncc(NCC3CCOCC3)n2)c(Cl)cn1` [Example 11, N-(5-Chloro-4-{6-[(tetrahydro-pyran-4-ylmethyl)-amino]-pyrazin-2-yl}-pyridin-2-yl)-acetamide] reads 0.029 µM; that for `O=C(Nc1cc(-c2cncc(NCc3ccccn3)n2)c(Cl)cn1)[C@@H]1CCCNC1` [Example 17, (R)-Piperidine-3-carboxylic acid (5-chloro-4-{6-[(pyridin-2-ylmethyl)-amino]-pyrazin-2-yl}-pyridin-2-yl)-amide], 0.121 µM; that for `CN(CC1CCOCC1)c1cncc(-c2cc(NC(=O)[C@@H]3CCCNC3)ncc2Cl)n1` [Example 30, (R)-Piperidine-3-carboxylic acid (5-chloro-4-{6-[methyl-(tetrahydro-pyran-4-ylmethyl)-amino]-pyrazin-2-yl}-pyridin-2-yl)-amide], 0.012 µM. The result for `O=C(Nc1cc(-c2cncc(NCC3CCOCC3)n2)c(Cl)cn1)C1CCCC1` [Example 13, Cyclopentanecarboxylic acid (5-chloro-4-{6-[(tetrahydro-pyran-4-ylmethyl)-amino]-pyrazin-2-yl}-pyridin-2-yl)-amide] reads 0.015 µM; that for `O=C(Nc1cc(-c2cncc(NCc3ccccc3F)n2)c(Cl)cn1)[C@@H]1CCCNC1` [Example 14, (R)-Piperidine-3-carboxylic acid {5-chloro-4-[6-(2-fluoro-benzylamino)-pyrazin-2-yl]-pyridin-2-yl}-amide], less than 0.008 µM.

In turn, `CC(C)S(=O)(=O)N1CCC[C@H](C(=O)Nc2cc(-c3cncc(NCC4CCOCC4)n3)c(C(F)(F)F)cn2)C1` [Example 67, (S)-1-(Propane-2-sulfonyl)-piperidine-3-carboxylic acid (4-{6-[(tetrahydro-pyran-4-ylmethyl)-amino]-pyrazin-2-yl}-5-trifluoromethyl-pyridin-2-yl)-amide] came in with an IC50 of 0.133 µM. `O=C(Nc1cc(-c2cncc(NCc3cncc(F)c3)n2)c(Cl)cn1)[C@@H]1CCCNC1` [Example 16, (R)-Piperidine-3-carboxylic acid (5-chloro-4-{6-[(5-fluoro-pyridin-3-ylmethyl)-amino]-pyrazin-2-yl}-pyridin-2-yl)-amide] had an IC50 of less than 0.008 µM.

For `CN1CC(C(=O)Nc2cc(-c3cncc(NCC4CCOCC4)n3)c(Cl)cn2)CC1=O` (stereo not shown) [Example 68, 1-Methyl-5-oxo-pyrrolidine-3-carboxylic acid (5-chloro-4-{6-[(tetrahydro-pyran-4-ylmethyl)-amino]-pyrazin-2-yl}-pyridin-2-yl)-amide], the half-inhibitory concentration (IC50) is less than 0.008 µM. Compound `O=C(Nc1cc(-c2cncc(NCC3CCOCC3)n2)c(Cl)cn1)[C@@H]1CCNC1` [Example 41, (R)-Pyrrolidine-3-carboxylic acid (5-chloro-4-{6-[(tetrahydro-pyran-4-ylmethyl)-amino]-pyrazin-2-yl}-pyridin-2-yl)-amide] came in with a 50% inhibitory concentration (IC50) of less than 0.008 µM. The result for `COC(=O)N[C@@H]1CC[C@@H](C(=O)Nc2cc(-c3cncc(NCC4CCOCC4)n3)c(Cl)cn2)C1` [Example 55, [(1R,3R)-3-(5-Chloro-4-{6-[(tetrahydro-pyran-4-ylmethyl)-amino]-pyrazin-2-yl}-pyridin-2-ylcarbamoyl)-cyclopentyl]-carbamic acid methyl ester] reads less than 0.008 µM; that for `O=C(Nc1cc(-c2cncc(NCC3CCCCO3)n2)c(Cl)cn1)[C@@H]1CCCNC1` (stereo partly drawn) [Example 34, (R)-Piperidine-3-carboxylic acid (5-chloro-4-{6-[(tetrahydro-pyran-2-ylmethyl)-amino]-pyrazin-2-yl}-pyridin-2-yl)-amide], 0.011 µM; that for `CC(C)C(=O)Nc1cc(-c2cncc(NCC3CCOCC3)n2)c(C(F)(F)F)cn1` [Example 58, N-(4-{6-[(Tetrahydro-pyran-4-ylmethyl)-amino]-pyrazin-2-yl}-5-trifluoromethyl-pyridin-2-yl)-isobutyramide], 0.146 µM.

Turning to `CS(=O)(=O)N1CCC[C@H](C(=O)Nc2cc(-c3cncc(NCC4CCOCC4)n3)c(Cl)cn2)C1` [Example 6], the IC50 was less than 0.008 µM. The result for `O=C(Nc1cc(-c2cncc(NCC3CCCOC3)n2)c(Cl)cn1)[C@@H]1CCCNC1` (stereo partly drawn) [Example 26, (R)-Piperidine-3-carboxylic acid (5-chloro-4-{6-[(tetrahydro-pyran-3-ylmethyl)-amino]-pyrazin-2-yl}-pyridin-2-yl)-amide] reads less than 0.008 µM; that for `O=C(Nc1cc(-c2cncc(Cl)n2)c(Cl)cn1)[C@@H]1CCCNC1` [Example 38, (R)-Piperidine-3-carboxylic acid [5-chloro-4-(6-chloro-pyrazin-2-yl)-pyridin-2-yl]-amide], 1.4 µM; that for `O=C(Cc1cccnc1)Nc1cc(-c2cncc(NCC3CCOCC3)n2)c(Cl)cn1` [Example 57, N-(5-Chloro-4-{6-[(tetrahydro-pyran-4-ylmethyl)-amino]-pyrazin-2-yl}-pyridin-2-yl)-2-pyridin-3-yl-acetamide], less than 0.008 µM. As to `CS(=O)(=O)N1CCC[C@H](C(=O)Nc2cc(-c3cncc(NCC4CCOCC4)n3)c(C(F)(F)F)cn2)C1` [Example 65, (S)-1-Methanesulfonyl-piperidine-3-carboxylic acid (4-{6-[(tetrahydro-pyran-4-ylmethyl)-amino]-pyrazin-2-yl}-5-trifluoromethyl-pyridin-2-yl)-amide], the IC50 was determined as 0.103 µM.

Compound `N[C@H]1CC[C@@H](C(=O)Nc2cc(-c3cncc(NCC4CCOCC4)n3)c(Cl)cn2)C1` [Example 43, (1R,3S)-3-Amino-cyclopentanecarboxylic acid (5-chloro-4-{6-[(tetrahydro-pyran-4-ylmethyl)-amino]-pyrazin-2-yl}-pyridin-2-yl)-amide] displayed an IC50 of less than 0.008 µM. The result for `COCC(=O)Nc1cc(-c2cncc(NCC3CCOCC3)n2)c(Cl)cn1` [Example 10, N-(5-Chloro-4-{6-[(tetrahydro-pyran-4-ylmethyl)-amino]-pyrazin-2-yl}-pyridin-2-yl)-2-methoxy-acetamide] reads 0.124 µM; that for `CC(C)OC(=O)N1CCC[C@H](C(=O)Nc2cc(-c3cncc(NCC4CCOCC4)n3)c(Cl)cn2)C1` [Example 46, (S)-3-(5-Chloro-4-{6-[(tetrahydro-pyran-4-ylmethyl)-amino]-pyrazin-2-yl}-pyridin-2-ylcarbamoyl)-piperidine-1-carboxylic acid isopropyl ester], less than 0.008 µM.

For the origin of these results see patent US20120165306A1, “PYRAZINYLPYRIDINES USEFUL FOR THE TREATMENT OF PROLIFERATIVE DISEASES” (priority 2009, published 2012).
